Reference: ChEMBL document CHEMBL5154798, “Structure-based discovery of receptor tyrosine kinase AXL degraders with excellent anti-tumor activity by selectively degrading AXL and inducing methuosis” (Eur J Med Chem, 2022)
Each block holds one molecule with its values, some of them ahead of it. Active and inactive are the calls of the source. No cut-off for these calls is given here.

Legend:
[1] = Cytotoxicity against human GES1 cells after 72 hrs by MTT assay; format: toxicity, cell-based
MDA-MB-231 [2] = assay: Antiproliferative activity against human MDA-MB-231 cells highly expressing AXL after 72 hrs by MTT assay; settings: MDA-MB-231, 72 h
4T1 [3] = assay: Antiproliferative activity against mouse 4T1 cells highly expressing AXL after 72 hrs by MTT assay; settings: 4T1, 72 h
[4] = Cytotoxicity against human MCF-10A cells after 72 hrs by MTT assay; format: toxicity, cell-based
[5] = Half-life in male Sprague-Dawley rat at 2 mg/kg, iv administered as single dose measured by LC/MS/MS analysis; format: ADME, organism-based; settings: in vivo
MDA-MB-231 [6] = assay: Induction of macropinocytosis in human MDA-MB-231 cells measured by LysoTracker staining based fluorescence microscopy; format: functional, cell-based
[7] = Clearance in male Sprague-Dawley rat at 2 mg/kg, iv administered as single dose measured by LC/MS/MS analysis; format: ADME, organism-based; settings: in vivo, iv, 2 mg/kg
MDA-MB-231 [8] = assay: Induction of macropinocytosis in human MDA-MB-231 cells measured by MitoTracker staining based fluorescence microscopy; format: functional, cell-based
[9] = Oral bioavailability in male Sprague-Dawley rat at 20 mg/kg administered as single dose measured by LC/MS/MS analysis; format: ADME, organism-based; settings: in vivo
[10] = Systemic toxicity in female BALB/c nude mouse xenografted with human MDA-MB-231 cells assessed as necrosis of liver tissue at 25 mg/kg, ip; format: organism-based; settings: in vivo
[11] = Half-life in male Sprague-Dawley rat at 20 mg/kg, po administered as single dose measured by LC/MS/MS analysis; format: ADME, organism-based; settings: in vivo
MDA-MB-231 [12] = assay: Induction of macropinocytosis in human MDA-MB-231 cells assessed as co-localization of Rab7 with lucifer yellow measured by immunofluorescence assay; format: functional, cell-based
[13] = AUC (0 to t) in male Sprague-Dawley rat at 2 mg/kg, iv administered as single dose measured by LC/MS/MS analysis; format: ADME, organism-based; set-up: dose 2 mg/kg, route iv; settings: in vivo
MDA-MB-231 [14] = assay: Antitumor activity against human MDA-MB-231 cells xenografted in female BALB/c nude mouse assessed as tumor growth inhibition at 25 mg/kg, ip; format: functional, organism-based
[15] = Toxicity in female BALB/c nude mouse xenografted with human MDA-MB-231 cells assessed as change in body wieght at 25 mg/kg, ip; format: organism-based; settings: in vivo
[16] = Systemic toxicity in female BALB/c nude mouse xenografted with human MDA-MB-231 cells assessed as inflammatory cell infiltration in liver at 25 mg/kg, ip; format: organism-based; settings: in vivo
MDA-MB-231 [17] = assay: Induction of cytoplasmic vacuolation in human MDA-MB-231 cells at 1 uM in presence of 1 uM pan-caspase inhibitor Z-VAD-FMK; format: functional, cell-based
[18] = Tmax in male Sprague-Dawley rat at 2 mg/kg, iv administered as single dose measured by LC/MS/MS analysis; format: ADME, organism-based; settings: in vivo
[19] = Systemic toxicity in female BALB/c nude mouse xenografted with human MDA-MB-231 cells assessed as necrosis of kidney tissue at 25 mg/kg, ip; format: organism-based; settings: in vivo
Mus musculus = assay: In vivo induction of CRBN-mediated AXL degradation in mouse measured after 6 hrs; format: functional, organism-based
MDA-MB-231 [20] = assay: Induction of cytoplasmic vacuolation in human MDA-MB-231 cells at 0.5 uM; format: functional, cell-based
[21] = Systemic toxicity in female BALB/c nude mouse xenografted with human MDA-MB-231 cells assessed as inflammatory cell infiltration in heart at 25 mg/kg, ip; format: organism-based; settings: in vivo
MDA-MB-231 [22] = assay: Induction of macropinocytosis in human MDA-MB-231 cells assessed as co-localization of LAMP-1 with lucifer yellow measured by immunofluorescence assay; format: functional, cell-based
[23] = AUC (0 to t) in male Sprague-Dawley rat at 20 mg/kg, po administered as single dose measured by LC/MS/MS analysis; format: ADME, organism-based; set-up: dose 20 mg/kg, route po; settings: in vivo
[24] = Systemic toxicity in female BALB/c nude mouse xenografted with human MDA-MB-231 cells assessed as inflammatory cell infiltration in spleen at 25 mg/kg, ip; format: organism-based; settings: in vivo
[25] = Systemic toxicity in female BALB/c nude mouse xenografted with human MDA-MB-231 cells assessed as necrosis of lung tissue at 25 mg/kg, ip; format: organism-based; settings: in vivo
[26] = Systemic toxicity in female BALB/c nude mouse xenografted with human MDA-MB-231 cells assessed as inflammatory cell infiltration in lung at 25 mg/kg, ip; format: organism-based; settings: in vivo
4T1 [27] = assay: Induction of cytoplasmic vacuolation in mouse 4T1 cells at 0.5 uM; format: functional, cell-based
[28] = Systemic toxicity in female BALB/c nude mouse xenografted with human MDA-MB-231 cells assessed as necrosis of spleen tissue at 25 mg/kg, ip; format: organism-based; settings: in vivo
[29] = Systemic toxicity in female BALB/c nude mouse xenografted with human MDA-MB-231 cells assessed as necrosis of heart tissue at 25 mg/kg, ip; format: organism-based; settings: in vivo
[30] = Cmax in male Sprague-Dawley rat at 20 mg/kg, po administered as single dose measured by LC/MS/MS analysis; format: ADME, organism-based; set-up: dose 20 mg/kg, route po; settings: in vivo
[31] = Systemic toxicity in female BALB/c nude mouse xenografted with human MDA-MB-231 cells assessed as inflammatory cell infiltration in kidney at 25 mg/kg, ip; format: organism-based; settings: in vivo
[32] = Cmax in male Sprague-Dawley rat at 2 mg/kg, iv administered as single dose measured by LC/MS/MS analysis; format: ADME, organism-based; set-up: dose 2 mg/kg, route iv; settings: in vivo
[33] = Tmax in male Sprague-Dawley rat at 20 mg/kg, po administered as single dose measured by LC/MS/MS analysis; format: ADME, organism-based; settings: in vivo
[34] = target: T1, Tyrosine-protein kinase receptor UFO (Homo sapiens, UniProt P30530); assay: Inhibition of AXL (unknown origin) measured by FRET assay
T1 sequence (P30530 whole entry): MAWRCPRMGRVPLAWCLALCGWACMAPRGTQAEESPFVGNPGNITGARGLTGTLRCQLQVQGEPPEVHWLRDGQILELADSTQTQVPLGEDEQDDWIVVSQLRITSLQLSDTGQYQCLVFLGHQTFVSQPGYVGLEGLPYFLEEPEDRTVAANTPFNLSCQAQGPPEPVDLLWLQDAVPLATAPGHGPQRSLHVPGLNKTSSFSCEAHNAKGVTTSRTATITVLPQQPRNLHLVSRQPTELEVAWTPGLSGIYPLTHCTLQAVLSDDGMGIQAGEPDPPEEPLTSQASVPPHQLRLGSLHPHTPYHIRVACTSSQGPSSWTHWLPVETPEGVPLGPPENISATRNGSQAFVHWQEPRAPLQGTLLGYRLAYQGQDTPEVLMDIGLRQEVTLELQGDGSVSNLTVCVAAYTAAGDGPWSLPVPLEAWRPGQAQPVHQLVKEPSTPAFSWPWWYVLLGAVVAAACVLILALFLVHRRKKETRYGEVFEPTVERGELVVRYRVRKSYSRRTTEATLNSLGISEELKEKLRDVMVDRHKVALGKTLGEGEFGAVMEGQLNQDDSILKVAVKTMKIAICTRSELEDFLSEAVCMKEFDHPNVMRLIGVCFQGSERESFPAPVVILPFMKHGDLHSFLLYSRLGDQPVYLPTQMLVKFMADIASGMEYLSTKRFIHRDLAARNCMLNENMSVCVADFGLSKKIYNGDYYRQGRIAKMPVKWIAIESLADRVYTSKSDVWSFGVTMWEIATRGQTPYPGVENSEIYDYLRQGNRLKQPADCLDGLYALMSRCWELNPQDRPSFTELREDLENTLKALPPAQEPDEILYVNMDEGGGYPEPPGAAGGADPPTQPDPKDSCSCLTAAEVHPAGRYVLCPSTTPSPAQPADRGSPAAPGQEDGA

SMILES: Nc1nc(NCCNC(=O)CCCCCCCNc2cccc3c2CN(C2CCC(=O)NC2=O)C3=O)nn1-c1ccc(-c2ccccc2)nn1 (centres undefined)
IC50 at 72 h [1]: > 60 µM
IC50 (MDA-MB-231 [2]): 34.7 µM
IC50 (4T1 [3]): 19.5 µM
IC50 at 72 h [4]: > 60 µM

SMILES: Nc1nc(NCCNC(=O)CCCCCCNc2cccc3c2CN(C2CCC(=O)NC2=O)C3=O)nn1-c1cc2c(nn1)-c1ccccc1CCC2 (centres undefined)
IC50 at 72 h [1]: > 60 µM
IC50 at 72 h [4]: > 60 µM

SMILES: Nc1nc(Nc2ccc(CNC(=O)CCCCCCCNc3cccc4c3CN(C3CCC(=O)NC3=O)C4=O)cc2)nn1-c1cc2c(nn1)-c1ccccc1CCC2 (centres undefined)
IC50 at 72 h [1]: > 60 µM
IC50 (MDA-MB-231 [2]): 27.6 µM
IC50 (4T1 [3]): 21.1 µM
IC50 at 72 h [4]: > 60 µM

SMILES: Nc1nc(Nc2ccc(CNC(=O)CCCNc3cccc4c3CN(C3CCC(=O)NC3=O)C4=O)cc2)nn1-c1cc2c(nn1)-c1ccccc1CCC2 (centres undefined)
IC50 at 72 h [1]: > 60 µM
IC50 (MDA-MB-231 [2]): 41.3 µM
IC50 (4T1 [3]): 34.6 µM
IC50 at 72 h [4]: > 60 µM

SMILES: Nc1nc(NCCNC(=O)CCCNc2cccc3c2CN(C2CCC(=O)NC2=O)C3=O)nn1-c1cc2c(nn1)-c1ccccc1CCC2 (centres undefined)
IC50 [34]: > 60 µM
IC50 at 72 h [1]: > 60 µM
IC50 (MDA-MB-231 [2]): > 60 µM
IC50 at 72 h [4]: > 60 µM

Continued, in another order:

t1/2 [5]: 1.18 h
CL [7]: 12 mL/min/kg
bioavailability [9]: 7.8%
half-life [11]: 4.43 h
AUCt [13]: 7581.3 ng·h/mL
Tmax [18]: 0.82 h
AUC(0-t) [23]: 3590 ng·h/mL
IC50 (MDA-MB-231 [2]): 6.23 µM
Cmax [30]: 144 ng/mL
Cmax [32]: 279 ng/mL
Tmax [33]: 2.25 h
IC50 (4T1 [3]): 2.06 µM
SMILES: Nc1nc(Nc2ccc(CNC(=O)CCCCCNc3cccc4c3CN(C3CCC(=O)NC3=O)C4=O)cc2)nn1-c1ccc(-c2ccccc2)nn1 (centres undefined)
Activity (MDA-MB-231 [6]): Active
Activity (MDA-MB-231 [8]): Active
Activity [10]: Non-Toxic
Activity (MDA-MB-231 [12]): Active
TGI (MDA-MB-231 [14]): Active
IC50 at 72 h [1]: > 60 µM
Activity [15]: Non-Toxic
Activity [16]: Non-Toxic
Activity (MDA-MB-231 [17]): Active
Activity [19]: Non-Toxic
Activity (Mus musculus): Active
Activity (MDA-MB-231 [20]): Active
Activity [21]: Non-Toxic
Activity (MDA-MB-231 [22]): Active
Activity [24]: Non-Toxic
Activity [25]: Non-Toxic
Activity [26]: Non-Toxic
Activity (4T1 [27]): Active
Activity [28]: Non-Toxic
Activity [29]: Non-Toxic
Activity [31]: Non-Toxic
IC50 at 72 h [4]: > 60 µM

IC50 (MDA-MB-231 [2]): 48 µM
IC50 (4T1 [3]): > 60 µM
SMILES: Nc1nc(Nc2ccc(CNC(=O)CCCNc3cccc4c3CN(C3CCC(=O)NC3=O)C4=O)cc2)nn1-c1ccc(-c2ccccc2)nn1 (centres undefined)
IC50 at 72 h [1]: > 60 µM
IC50 at 72 h [4]: > 60 µM

IC50 [34]: > 60 µM
IC50 (MDA-MB-231 [2]): > 60 µM
IC50 (4T1 [3]): > 60 µM
SMILES: Nc1nc(NCCNC(=O)CCCCCCNc2cccc3c2CN(C2CCC(=O)NC2=O)C3=O)nn1-c1ccc(-c2ccccc2)nn1 (centres undefined)
IC50 at 72 h [1]: > 60 µM
IC50 at 72 h [4]: > 60 µM

IC50 (MDA-MB-231 [2]): 29.5 µM
IC50 (4T1 [3]): 2230 µM
SMILES: Nc1nc(Nc2ccc(CNC(=O)CCCCCCNc3cccc4c3CN(C3CCC(=O)NC3=O)C4=O)cc2)nn1-c1cc2c(nn1)-c1ccccc1CCC2 (centres undefined)
IC50 at 72 h [1]: > 60 µM
IC50 at 72 h [4]: > 60 µM

IC50 (MDA-MB-231 [2]): > 60 µM
IC50 (4T1 [3]): 27.2 µM
SMILES: Nc1nc(NCCNC(=O)CCCCCCCNc2cccc3c2CN(C2CCC(=O)NC2=O)C3=O)nn1-c1cc2c(nn1)-c1ccccc1CCC2 (centres undefined)
IC50 at 72 h [1]: > 60 µM
IC50 at 72 h [4]: > 60 µM
